Our source for the IC50 values is patent US8586604B2, “Inhibitors of the microsomal prostaglandin E2 synthase-1” (Boehringer Ingelheim International GmbH, priority 2010, dated 2013).

This test deals with T1, recombinant human mPGES-1 (Homo sapiens, UniProt O14684).
T1 construct: made in house; host or cells: Rosetta E. coli (membrane/microsome fraction)
T1 sequence (O14684 1-152): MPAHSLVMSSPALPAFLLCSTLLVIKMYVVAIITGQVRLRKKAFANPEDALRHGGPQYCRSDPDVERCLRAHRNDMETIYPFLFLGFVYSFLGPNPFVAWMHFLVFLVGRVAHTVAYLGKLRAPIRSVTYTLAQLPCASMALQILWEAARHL
As to the kind of experiment: mPGES-1 enzyme assay (HTRF detection of PGE2). The class given is biochemical. As to conditions: recombinant human mPGES-1 microsomes, PGH2 2 μM, read-out: mPGES-1 inhibitory effect IC50. As to the method: Microsomes from Rosetta E. coli bacteria expressing recombinant human mPGES-1 can be derived as described below:
Inoculate 5 ml LB with Ampicilin (50 μg/ml) and Chloramphenicol (34 μg/ml) with bacteria from freeze culture. Incubate 8 h at 37° C. with 200 rpm. Thereafter, inoculate 500-1000 ml LB containing Amp and Chloro with the 5 ml on culture and grow to OD640 of 0.8-1.0.
Chill the culture to +4° C. before induction. Induce the culture with IPTG at a final concentration of 400 μM. Express the protein at room temp 18-23° C. with 200 rpm shaking over night.
The following steps can be performed on the following day: • 1. Spin down the cells in 250 ml centrifuge flasks for 15 min at 7000 rpm (Beckmann Coulte Avanti J-E centrifuge) • 2. Dissolve the pellet from 250 ml culture in 12.5 ml homogenization buffer • 3. (15 mM Tris-HCL pH8, 1 mM EDTA pH8, 0.25 mM Sucrose, 2.5 mM GSH, 1Tablet Protease inhibitor per 50 ml buffer) • 4. Disintegrate the cells by sonication, 5×10 seconds at 48% amplitude of a 750 W sonifier • 5. Add 2.5 ml MgCl2 (100 mM) and DNase 12.5 μl (0.8 mg/ml) and incubate on ice for 30 min • 6. Spin down the bacteria debris and save the supernatant, 7000 rpm for 15 min • 7. Isolate the protein containing membranes in the supernatant by ultracentrifugation 120000×g for 2 hour at 4° C. (Sorvall T880 rotor). • 8. Discard the supernatant and dissolve the pellet in 20 mM Potassium phosphate buffer pH7.4 (KH2PO4 and K2HPO4) buffer by sonication (5×10 s, 30% of a 50 W sonifier) and aliquot the enzyme and store aliquots at −80° C.
Before each experiment is performed an aliquot of the enzyme is thawed and it can then be dissolved in 0.1 M Potassium phosphate buffer pH7.4 (KH2PO4 and K2HPO4) buffer containing 2.5 mM GSH.
The aim of this assay is to determine the affinity of a test compound for the mPGES-1 enzyme.
47 μl of recombinant human mPGES-1 (˜0.5 μg protein/well) containing microsomal suspension in a buffer containing GSH, (2.5 mmol/L L-Glutathione reduced, dissolved in 0.1 mol/L Phosphat Buffer pH 7.4) is dispensed in a 384-well plate and thereafter 1 μl of the test compound(s) is/are added and incubated for 25 minutes at room temperature. The enzyme reaction is started by the addition of 2 ul PGH2 (final conc. 2 μM) dissolved in water-free Diglyme. After 60 seconds the reaction is terminated by addition of a stop solution containing FeCl2 (10 μL 0.074 mol/l FeCl2). The samples are diluted between 1:25 in PBS (Phosphate Buffered Saline). 10 μl of the diluted samples are transferred to 384-well low volume plate. In order to quantify the amount of PGE2 that has been formed, a homogenous time resolved fluorescent (HTRF) detecting of PGE2 has been performed using a commercially available kit from Cisbio according to the manufactures recommendation. This HTRF-based assay has been described in detail (see: Goedken et al., J Biomol Screen, 2008, 13(7), 619-625). Briefly, the diluted samples are mixed with 5 μl PGE2-d2 conjungate and 5 μl anti-PGE2 cryptate conjungate. After an incubation period of the plates over night, the fluorescence is measured by the use of an appropriate microplate reader.
The fluorescence of Europium cryptate (maxex=307 nm, maxem=620 nm) and d2-PGE2 (maxex=620 nm, maxem=665 nm) are measured.
The extent of the specific HTRF is measured as a ratio of the emission intensity at 665 nm vs. that at 620 nm at an excitation pulse of 320 nm. The quantification plate contains also wells with different concentrations of PGE2 as calibration curve for the calculation of the PGE2 concentrations from the HTRF ratio values.
From all mPGES enzyme assay the background is subtracted and the IC50 is calculated over a nonlinear regression with conventional software.
On the technique in general: Time-resolved FRET reads energy transfer from a long-lived donor to a nearby acceptor.
Usually IC50 stands for the point on the concentration scale where inhibition reaches its midpoint. As for `O=C(N[C@H]1CC[C@H](C(F)(F)F)CC1)c1cc2nc(Nc3c(Cl)ccc(CNC(=O)C4(C(F)(F)F)CC4)c3Cl)[nH]c2nc1OCCOC(F)F` [Example 12], the IC50 worked out at 1 nM.

For `Cn1c(Nc2cc(CNC(=O)C3(C(F)(F)F)CC3)ccc2Cl)nc2cc(C(=O)N[C@H]3CC[C@H](C(F)(F)F)CC3)c(OCCF)nc21` [Example 6], the half-inhibitory concentration (IC50) was 4 nM. The value for `O=C(N[C@H]1CC[C@H](C(F)(F)F)CC1)c1cc2nc(Nc3cc(CNC(=O)C4(C(F)(F)F)CC4)ccc3Cl)[nH]c2nc1OCC(F)F` [Example 5] was 4 nM. The value for `Cn1c(Nc2c(F)ccc(CNC(=O)C(C)(C)C)c2F)nc2cc(C(=O)N[C@H]3CC[C@H](C(F)(F)F)CC3)c(OCC(F)F)nc21` [Example 10, N-{2,4-Difluoro-3-[6-(trans-4-trifluoromethyl-cylohexylcarbamoyl)-5-(2,2-difluoro-ethoxy)-3-methyl-3H-imidazo[4,5-b]pyridin-2-ylamino]benzyl}-2,2-dimethyl-propionamide] was 5 nM; that for `CC(C)(C)C(=O)NCc1ccc(F)c(Nc2nc3cc(C(=O)N[C@H]4CC[C@H](C(F)(F)F)CC4)c(OCC(F)F)nc3[nH]2)c1F` [Example 11] was 4 nM; that for `COCCOc1nc2c(cc1C(=O)N[C@H]1CC[C@H](C(F)(F)F)CC1)nc(Nc1cc(CNC(=O)C3(C(F)(F)F)CC3)ccc1Cl)n2C` [Example 4] was 8 nM. Regarding `CC(C)(C)C(=O)NCc1ccc(Cl)c(Nc2nc3cc(C(=O)Nc4ccc(F)c(Cl)c4)c(OCC(F)F)nc3[nH]2)c1Cl` [Example 157], the IC50 was determined as 2 nM.

For `Cn1c(Nc2cc(CNC(=O)C(C)(C)C)ccc2Cl)nc2cc(C(=O)Nc3ccc(Br)cc3)c(OCC(F)F)nc21` [Example 1, N-{4-Chloro-3-[6-(4-bromo-phenylcarbamoyl)-5-(2,2-difluoro-ethoxy)-3-methyl-3H-imidazo[4,5-b]pyridin-2-ylamino]benzyl}-2,2-dimethyl-propionamide], the IC50 stood at 9 nM. The value for `CC(C)(C)C(=O)NCc1ccc(Cl)c(Nc2nc3cc(C(=O)N[C@H]4CC[C@H](C(F)(F)F)CC4)c(OCC(F)F)nc3n2CC(F)F)c1Cl` [Example 15] was 4 nM. The result for `Cn1c(Nc2cc(CNC(=O)C(C)(C)C)ccc2Cl)nc2cc(C(=O)N[C@H]3CC[C@H](C(F)(F)F)CC3)c(OCC(F)F)nc21` [Example 2, N-{4-Chloro-3-[6-(trans-4-trifluoromethyl-cyclohexylcarbamoyl)-5-(2,2-difluoro-ethoxy)-3-methyl-3H-imidazo[4,5-b]pyridin-2-ylamino]benzyl}-2,2-dimethyl-propionamide] reads 3 nM. The value for `O=C(N[C@H]1CC[C@H](C(F)(F)F)CC1)c1cc2[nH]c(Nc3cc(CNC(=O)C4(C(F)(F)F)CC4)ccc3Cl)nc2nc1OCCF` [Example 7] was 8 nM; that for `CC(C)(C)C(=O)NCc1ccc(Cl)c(Nc2nc3cc(C(=O)N[C@H]4CC[C@H](C(F)(F)F)CC4)c(OCC(F)F)nc3[nH]2)c1Cl` [Example 8, N-{2,4-Dichloro-3-[6-(trans-4-trifluoromethyl-cyclohexylcarbamoyl)-5-(2,2-difluoro-ethoxy)-1H-imidazo[4,5-b]pyridin-2-ylamino]benzyl}-2,2-dimethyl-propionamide] was 3 nM.

Regarding `Cn1c(Nc2c(Cl)ccc(CNC(=O)C(C)(C)C)c2Cl)nc2cc(C(=O)N[C@H]3CC[C@H](C(F)(F)F)CC3)c(OCC(F)F)nc21` [Example 9, N-{2,4-Dichloro-3-[6-(trans-4-trifluoromethyl-cyclohexylcarbamoyl)-5-(2,2-difluoro-ethoxy)-3-methyl-3H-imidazo[4,5-b]pyridin-2-ylamino]benzyl}-2,2-dimethyl-propionamide], the half-maximal inhibitory concentration (IC50) is 6 nM. The value for `CC(C)(C)C(=O)NCc1ccc(Cl)c(Nc2nc3cc(C(=O)N[C@H]4CC[C@H](C(F)(F)F)CC4)c(OCC(F)F)nc3[nH]2)c1F` [Example 156, N-{2-Fluoro-4-chloro-3-[6-(trans-4-trifluoromethyl-cyclohexylcarbamoyl)-5-(2,2-difluoro-ethoxy)-1H-imidazo[4,5-b]pyridin-2-ylamino]benzyl}-2,2-dimethyl-propionamide] was 1 nM; that for `CC(C)(C)C(=O)NCc1ccc(Cl)c(Nc2nc3cc(C(=O)NCC(F)F)c(OCC(F)F)nc3n2CC(F)F)c1Cl` [Example 14] was 1 nM. As for `COCCOc1nc2nc(Nc3cc(CNC(=O)C4(C(F)(F)F)CC4)ccc3Cl)[nH]c2cc1C(=O)N[C@H]1CC[C@H](C(F)(F)F)CC1` [Example 3], the IC50 stood at 21 nM.
